In patent US9850203B2, “Autotaxin inhibitor compounds” (PharmAkea, Inc., priority 2013, dated 2017):

The molecules below were run against human autotaxin (ATX) (Homo sapiens (Human), UniProt Q13822) (assay: Human Autotaxin Assay). Settings: concentrated conditioned media from Hep3B cells; LPC substrate, choline release.
Assay type: biochemical
How it was run: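 Autotaxin source: Hep3B conditioned medium concentrated 20-fold, preincubated with compound 15 min at 37° C in lyso-PLD buffer (100 mM Tris pH 9, 500 mM NaCl, 5 mM MgCl2, 5 mM CaCl2, 0.05% Triton X-100, ±0.2% fatty-acid-free HSA). 100 uM LPC (14:0) then added, 1.5-3 hours at 37° C; choline release measured.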

Compound	IC50
Cc1c(Sc2cccc(C(=O)O)c2)c2ccc(Cl)c(F)c2n1CC(=O)N1CCC2(CCNC(=O)CC2)CC1 [Compound 1-53, 3-((6-Chloro-7-fluoro-2-methyl-1-(2-oxo-2-(10-oxo-3,9-diazaspiro[5.6]dodecan-3-yl)ethyl)-1H-indol-3-yl)thio)benzoic acid]	≤ 0.5 µM
Cc1c(Sc2cccc(C(=O)O)c2)c2ccc(Cl)c(F)c2n1CC(=O)N1CCC2(CC1)CC(=O)N2 [Compound 1-41, 3-((6-Chloro-7-fluoro-2-methyl-1-(2-oxo-2-(2-oxo-1,7-diazaspiro[3.5]nonan-7-yl)ethyl)-1H-indol-3-yl)thio)benzoic acid]	≤ 0.5 µM
Cc1c(Sc2cccc(C(=O)O)c2)c2ccc(Cl)c(F)c2n1CC(=O)N1CCC2(CC1)CC(C#N)C2 [Compound 1-19, 3-((6-Chloro-1-(2-(2-cyano-7-azaspiro[3.5]nonan-7-yl)-2-oxoethyl)-7-fluoro-2-methyl-1H-indol-3-yl)thio)benzoic acid]	≤ 0.5 µM
Cc1c(Sc2cccc(C(=O)O)c2)c2ccc(Cl)c(F)c2n1CC(=O)N1CCC(Cc2cnn(C)c2)C1 (stereo not drawn) [Compound 1-93, 3-((6-Chloro-7-fluoro-2-methyl-1-(2-(3-((1-methyl-1H-pyrazol-4-yl)methyl)pyrrolidin-1-yl)-2-oxoethyl)-1H-indol-3-yl)thio)benzoic acid]	≤ 0.5 µM
Cc1c(Sc2cccc(C(=O)O)c2)c2ccc(Cl)c(F)c2n1CC(=O)N1CCCC1 [Compound 1-9, 3-((6-Chloro-7-fluoro-2-methyl-1-(2-oxo-2-(pyrrolidin-1-yl)ethyl)-1H-indol-3-yl)thio)benzoic acid]	≤ 0.5 µM
Cc1c(Sc2cccc(C(=O)O)c2)c2ccc(Cl)c(F)c2n1CC(=O)N1CCC(CCc2ccccc2)C1 (stereo not drawn) [Compound 1-76, 3-((6-Chloro-7-fluoro-2-methyl-1-(2-oxo-2-(3-phenethylpyrrolidin-1-yl)ethyl)-1H-indol-3-yl)thio)benzoic acid]	0.5 to 3 µM
Cc1c(Sc2cccc(C(=O)O)c2)c2ccc(Cl)c(F)c2n1CC(=O)N1CCC2(CC2)C1 [Compound 1-95, 3-((6-Chloro-7-fluoro-2-methyl-1-(2-oxo-2-(5-azaspiro[2.4]heptan-5-yl)ethyl)-1H-indol-3-yl)thio)benzoic acid]	≤ 0.5 µM
Cc1c(Sc2cccc(C(=O)O)c2)c2ccc(Cl)c(F)c2n1CC(=O)N1CC2(CC2)c2ccccc21 [Compound 1-31, 3-((6-Chloro-7-fluoro-2-methyl-1-(2-oxo-2-(spiro[cyclopropane-1,3′-indolin]-1′-yl)ethyl)-1H-indol-3-yl)thio)benzoic acid]	≤ 0.5 µM

Results, then the molecule that gave them:

IC50	Compound
≤ 0.5 µM	Cc1c(Sc2cccc(C(=O)O)c2F)c2ccc(Cl)c(F)c2n1CC(=O)N1CC2(CCC2)c2ccccc21 [Compound 3-220, 3-((6-Chloro-7-fluoro-2-methyl-1-(2-oxo-2-(spiro[cyclobutane-1,3′-indolin]-1′-yl)ethyl)-1H-indol-3-yl)thio)-2-fluorobenzoic acid]
≤ 0.5 µM	O=C(O)c1cccc(Sc2c(C3CC3)n(CC(=O)N3CCc4ccccc43)c3c(F)c(Cl)ccc23)c1F [Compound 4-29, Sodium 3-((6-chloro-2-cyclopropyl-7-fluoro-1-(2-(indolin-1-yl)-2-oxoethyl)-1H-indol-3-yl)thio)-2-fluorobenzoate]
≤ 0.5 µM	Cc1c(Sc2cccc(C(=O)O)c2F)c2ccc(Cl)c(F)c2n1CC(=O)N1CC[C@@H](CO)C1 [Compound 2-64, (R)-3-((6-Chloro-7-fluoro-1-(2-(3-(hydroxymethyl)pyrrolidin-1-yl)-2-oxoethyl)-2-methyl-1H-indol-3-yl)thio)-2-fluorobenzoic acid]
≤ 0.5 µM	O=C(O)c1cccc(Sc2c(Cl)n(CCN3CC4(CCC4)c4ccccc43)c3c(F)c(Cl)ccc23)c1F [Compound 5-1, Sodium 3-((2,6-dichloro-7-fluoro-1-(2-(spiro[cyclobutane-1,3′-indolin]-1′-yl)ethyl)-1H-indol-3-yl)thio)-2-fluorobenzoate]
